According to patent US20100272773A1, “Use of Drug Polymorphs to Achieve Controlled Drug Delivery From a Coated Medical Device” (BOSTON SCIENTIFIC SCIMED, INC., priority 2009, published 2010):

Test: Calculated time for complete dissolution of Ptx transferred to the vessel
Type: physicochemical
Conditions: ~23 μg Ptx transferred to vessel divided by dissolution rate
Description: The ability to control the Ptx morphology on a drug coated balloon is important in achieving proper dosing. This is illustrated by the following example. […] Other factors such as particle size will also influence dissolution.

SMILES | Time for complete dissolution of the Ptx | Time for complete dissolution
CC(=O)O[C@H]1C(=O)[C@@]2(C)[C@H]([C@H](OC(=O)c3ccccc3)[C@]3(O)C[C@H](OC(=O)[C@H](O)[C@@H](NC(=O)c4ccccc4)c4ccccc4)C(C)=C1C3(C)C)[C@]1(OC(C)=O)CO[C@@H]1C[C@@H]2O [PTx Anhydrous Crystal, paclitaxel] | about 1 day | 
CC(=O)O[C@H]1C(=O)[C@@]2(C)[C@H]([C@H](OC(=O)c3ccccc3)[C@]3(O)C[C@H](OC(=O)[C@H](O)[C@@H](NC(=O)c4ccccc4)c4ccccc4)C(C)=C1C3(C)C)[C@]1(OC(C)=O)CO[C@@H]1C[C@@H]2O [PTx 2H2O Crystalline, paclitaxel] |  | about 10 days
